What all share (format): biochemical
Assay [1] addresses T1, Human Calpain 9/NS1 (Homo sapiens, UniProt O14815).
T1 sequence (O14815 1-690): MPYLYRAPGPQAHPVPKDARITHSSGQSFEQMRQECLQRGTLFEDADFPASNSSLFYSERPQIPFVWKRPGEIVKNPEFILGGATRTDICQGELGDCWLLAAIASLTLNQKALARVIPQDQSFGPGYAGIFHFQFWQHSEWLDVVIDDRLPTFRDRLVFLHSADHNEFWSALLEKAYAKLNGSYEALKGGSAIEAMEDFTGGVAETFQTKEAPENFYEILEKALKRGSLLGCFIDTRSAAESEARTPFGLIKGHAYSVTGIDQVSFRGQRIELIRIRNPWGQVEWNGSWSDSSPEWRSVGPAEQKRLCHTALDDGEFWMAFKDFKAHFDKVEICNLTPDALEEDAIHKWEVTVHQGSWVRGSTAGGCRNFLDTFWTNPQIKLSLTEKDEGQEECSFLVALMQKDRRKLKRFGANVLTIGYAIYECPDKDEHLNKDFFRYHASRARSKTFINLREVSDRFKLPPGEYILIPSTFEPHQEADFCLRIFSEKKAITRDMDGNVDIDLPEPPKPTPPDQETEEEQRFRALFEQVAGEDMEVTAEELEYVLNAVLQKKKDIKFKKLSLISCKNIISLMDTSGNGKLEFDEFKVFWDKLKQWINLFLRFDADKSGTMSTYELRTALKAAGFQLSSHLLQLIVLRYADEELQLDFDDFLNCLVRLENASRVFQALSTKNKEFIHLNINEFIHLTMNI
T1 sequence (P04632 1-268 partner): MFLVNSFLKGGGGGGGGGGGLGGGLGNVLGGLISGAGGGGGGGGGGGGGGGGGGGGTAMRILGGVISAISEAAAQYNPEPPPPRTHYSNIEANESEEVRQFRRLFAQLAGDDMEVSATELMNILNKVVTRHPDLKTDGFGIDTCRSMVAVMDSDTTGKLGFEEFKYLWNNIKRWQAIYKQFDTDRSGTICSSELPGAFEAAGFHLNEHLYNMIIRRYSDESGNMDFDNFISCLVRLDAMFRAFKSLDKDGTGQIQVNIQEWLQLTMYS
Description: Calpain inhibition continuous fluorescence (FRET) assay, Human Calpain 9/NS1. Conditions: Column C; read-out: Human Calpain 9/NS1 IC50. The method in brief: (§1)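 Inhibitors were preincubated with calpain in 50 mM Tris pH 7.5, 100 mM NaCl, 1 mM DTT at 25C. Reactions were started with 5-FAM/QXL 520 FRET peptide substrate plus CaCl2 and read at 490/520 nm for 10 min. IC50s came from 4-parameter fits of slope rates (1-5 min).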

Assay [2] has as its target T2, Human Calpain 1/NS1 (Homo sapiens, UniProt P07384).
T2 sequence (P07384 1-714): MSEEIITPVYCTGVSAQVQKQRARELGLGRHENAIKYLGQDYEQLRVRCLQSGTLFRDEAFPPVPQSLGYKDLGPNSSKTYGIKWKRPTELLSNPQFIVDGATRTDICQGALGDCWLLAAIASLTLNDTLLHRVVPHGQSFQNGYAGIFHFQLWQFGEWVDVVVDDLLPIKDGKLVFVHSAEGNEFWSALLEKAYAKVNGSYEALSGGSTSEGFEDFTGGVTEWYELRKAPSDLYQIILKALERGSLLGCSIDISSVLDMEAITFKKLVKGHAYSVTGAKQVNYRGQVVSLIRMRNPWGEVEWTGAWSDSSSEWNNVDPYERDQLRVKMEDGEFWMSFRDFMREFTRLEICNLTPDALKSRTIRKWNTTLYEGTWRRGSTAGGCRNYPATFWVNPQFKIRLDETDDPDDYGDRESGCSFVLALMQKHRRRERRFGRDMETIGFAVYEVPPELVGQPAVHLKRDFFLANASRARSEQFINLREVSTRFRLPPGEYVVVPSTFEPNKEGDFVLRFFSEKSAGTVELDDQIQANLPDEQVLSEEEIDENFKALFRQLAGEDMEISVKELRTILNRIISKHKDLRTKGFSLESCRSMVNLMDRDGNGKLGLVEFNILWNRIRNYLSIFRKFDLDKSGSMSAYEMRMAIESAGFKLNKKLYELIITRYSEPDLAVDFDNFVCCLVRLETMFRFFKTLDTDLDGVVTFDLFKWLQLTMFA
T2 sequence (P04632 1-268 partner): T1 sequence (P04632 1-268 partner)
The assay can be described thus: Calpain inhibition continuous fluorescence (FRET) assay, Human Calpain 1/NS1. As to conditions: Column A; read-out: Human Calpain 1/NS1 IC50. The method in brief:
as §1

The target of assay [3] is T3, Human Calpain 2/NS1 (Homo sapiens, UniProt P17655).
T3 sequence (P17655 1-700): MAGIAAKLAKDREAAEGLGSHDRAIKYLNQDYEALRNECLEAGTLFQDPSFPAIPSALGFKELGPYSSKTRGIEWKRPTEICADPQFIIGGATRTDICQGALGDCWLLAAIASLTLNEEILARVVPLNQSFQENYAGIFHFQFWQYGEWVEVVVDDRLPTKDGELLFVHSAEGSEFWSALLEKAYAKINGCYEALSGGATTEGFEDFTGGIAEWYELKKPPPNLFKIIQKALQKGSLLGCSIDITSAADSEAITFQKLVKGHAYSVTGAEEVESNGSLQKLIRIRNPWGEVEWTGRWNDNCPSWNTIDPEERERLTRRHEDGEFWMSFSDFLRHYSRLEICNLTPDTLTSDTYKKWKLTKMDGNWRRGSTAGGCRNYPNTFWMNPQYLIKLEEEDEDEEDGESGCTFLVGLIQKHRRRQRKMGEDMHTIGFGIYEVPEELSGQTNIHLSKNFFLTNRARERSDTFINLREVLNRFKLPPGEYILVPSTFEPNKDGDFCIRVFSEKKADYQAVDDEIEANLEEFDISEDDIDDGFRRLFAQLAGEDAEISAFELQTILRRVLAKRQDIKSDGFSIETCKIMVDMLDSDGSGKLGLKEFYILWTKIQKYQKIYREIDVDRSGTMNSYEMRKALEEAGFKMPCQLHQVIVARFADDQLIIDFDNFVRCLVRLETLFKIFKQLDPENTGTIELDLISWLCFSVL
T3 sequence (P04632 1-268 partner): T1 sequence (P04632 1-268 partner)
Description: Calpain inhibition continuous fluorescence (FRET) assay, Human Calpain 2/NS1. Conditions: Column B; read-out: Human Calpain 2/NS1 IC50. The method in brief:
as §1

In the case of `O=C[C@H](Cc1ccccc1)NC(=O)c1cncn1-c1n[nH]c2ccccc12` [Compound 102, (S)-1-(1H-indazol-3-yl)-N-(1-oxo-3-phenylpropan-2-yl)-1H-imidazole-5-carboxamide], the IC50 in assay [1], in assay [2] and in assay [3] was less than 3 µM each time.
`NC(=O)C(=O)[C@H](Cc1ccccc1)NC(=O)c1occc1-c1ccccc1` [Compound 104, (S)—N-(4-amino-3,4-dioxo-1-phenylbutan-2-yl)-3-phenylfuran-2-carboxamide]: the IC50 in assay [1], in assay [2] and in assay [3] was less than 3 µM throughout.
As to `Cc1cc(C(=O)N[C@@H](Cc2ccccc2)C(=O)C(N)=O)n(-c2cccc3ncccc23)n1` [Compound 108, (S)—N-(4-amino-3,4-dioxo-1-phenylbutan-2-yl)-3-methyl-1-(quinolin-5-yl)-1H-pyrazole-5-carboxamide], the IC50 in assay [1], in assay [2] and in assay [3] was less than 3 µM in each case.
`NC(=O)C(=O)[C@H](Cc1ccccc1)NC(=O)c1scnc1-c1ccccn1` [Compound 109, (S)—N-(4-amino-3,4-dioxo-1-phenylbutan-2-yl)-4-(pyridin-2-yl)thiazole-5-carboxamide]: the IC50 in assay [1], in assay [2] and in assay [3] was less than 3 µM throughout.
With `O=C[C@H](Cc1ccccc1)NC(=O)c1cncn1-c1cc(-c2ncco2)ccn1` [Compound 110, (S)-1-(4-(oxazol-2-yl)pyridin-2-yl)-N-(1-oxo-3-phenylpropan-2-yl)-1H-imidazole-5-carboxamide], the IC50 in assay [1] is 3 to 10 µM; in assay [2] it was less than 3 µM; in assay [3], less than 3 µM.
In the case of `O=C[C@H](Cc1ccccc1)NC(=O)c1cncn1-c1ccc(-c2ncco2)cn1` [Compound 111, (S)-1-(5-(oxazol-2-yl)pyridin-2-yl)-N-(1-oxo-3-phenylpropan-2-yl)-1H-imidazole-5-carboxamide], the IC50 in assay [1], in assay [2] and in assay [3] was less than 3 µM each time.
Turning to `Cc1cc(C(=O)N[C@@H](Cc2ccccc2)C(=O)C(N)=O)nn1-c1ncc(-c2ccccc2)o1` [Compound 114, (S)—N-(4-amino-3,4-dioxo-1-phenylbutan-2-yl)-5-methyl-1-(5-phenyloxazol-2-yl)-1H-pyrazole-3-carboxamide], the IC50 in assay [1] was 3 to 10 µM; in assay [2], 3 to 10 µM; in assay [3], less than 3 µM.
Consider `Cc1cc(C(=O)N[C@@H](Cc2ccccc2)C(=O)C(N)=O)nn1-c1ncc(-c2ccccc2)s1` [Compound 115, (S)—N-(4-amino-3,4-dioxo-1-phenylbutan-2-yl)-5-methyl-1-(5-phenylthiazol-2-yl)-1H-pyrazole-3-carboxamide], for which the IC50 in assay [1] was more than 10 µM; in assay [2] it was more than 10 µM; in assay [3], less than 3 µM.
Turning to `Cc1nsc(-c2ccccc2)c1C(=O)N[C@@H](Cc1ccccc1)C(=O)C(=O)NC1CC1` [Compound 116, (S)—N-(4-(cyclopropylamino)-3,4-dioxo-1-phenylbutan-2-yl)-3-methyl-5-phenylisothiazole-4-carboxamide], the IC50 in assay [1] was more than 10 µM; in assay [2] it was less than 3 µM; in assay [3], 3 to 10 µM.
Turning to `CC(C)c1cc(C(=O)N[C@@H](Cc2ccccc2)C(=O)C(N)=O)n(-c2ccccc2)n1` [Compound 117, (S)—N-(4-amino-3,4-dioxo-1-phenylbutan-2-yl)-3-isopropyl-1-phenyl-1H-pyrazole-5-carboxamide], the IC50 in assay [1], in assay [2] and in assay [3] was 3 to 10 µM in each case.
In the case of `Cc1cc(C(=O)N[C@@H](Cc2ccccc2)C(=O)C(N)=O)n(-c2nccc3ccccc23)n1` [Compound 119, (S)—N-(4-amino-3,4-dioxo-1-phenylbutan-2-yl)-1-(isoquinolin-1-yl)-3-methyl-1H-pyrazole-5-carboxamide], the IC50 in assay [1], in assay [2] and in assay [3] was less than 3 µM in each case.
For `Cc1cc(C(=O)N[C@@H](Cc2ccccc2)C(=O)C(=O)NC2CC2)n(-c2ccc(C(F)(F)F)cn2)n1` [Compound 122, (S)—N-(4-(cyclopropylamino)-3,4-dioxo-1-phenylbutan-2-yl)-3-methyl-1-(5-(trifluoromethyl)pyridin-2-yl)-1H-pyrazole-5-carboxamide], the IC50 in assay [1], in assay [2] and in assay [3] was less than 3 µM each time.
Turning to `Cc1cc(C)nc(-n2nc(C)cc2C(=O)N[C@@H](Cc2ccccc2)C(=O)C(N)=O)c1` [Compound 123, (S)—N-(4-amino-3,4-dioxo-1-phenylbutan-2-yl)-1-(4,6-dimethylpyridin-2-yl)-3-methyl-1H-pyrazole-5-carboxamide], the IC50 in assay [1], in assay [2] and in assay [3] was less than 3 µM throughout.
`Cc1nc(-c2ccccc2)c(C(=O)N[C@@H](Cc2ccccc2)C(=O)C(=O)NC2CC2)s1` [Compound 124, (S)—N-(4-(cyclopropylamino)-3,4-dioxo-1-phenylbutan-2-yl)-2-methyl-4-phenylthiazole-5-carboxamide]: the IC50 in assay [1], in assay [2] and in assay [3] was less than 3 µM in each case.
As for `Cc1cc(C(=O)N[C@@H](Cc2ccccc2)C(=O)C(=O)NC2CC2)nn1-c1nc(-c2ccccc2)cs1` [Compound 125, (S)—N-(4-(cyclopropylamino)-3,4-dioxo-1-phenylbutan-2-yl)-5-methyl-1-(4-phenylthiazol-2-yl)-1H-pyrazole-3-carboxamide], the IC50 in assay [1], in assay [2] and in assay [3] was more than 10 µM in each case.
Take `Cc1cc(C(=O)N[C@@H](Cc2ccccc2)C(=O)C(=O)NC2CC2)n(-c2cncnc2)n1` [Compound 127]: the IC50 in assay [1], in assay [2] and in assay [3] was less than 3 µM throughout.

The record behind these values is patent publication US11339130B1 (Blade Therapeutics, Inc., priority 2016, dated 2022).
